Literature values in patent US3995028A, “Antibiotic OS-3256-B” (The Kitasato Institute, priority 1975, dated 1976).

Tested on: animal tumors such as leukemia L-1210, Sarcoma-180 and Hela cells

SMILES: C[C@H](N)C(=O)N[C@@H](CCC(=O)C=[N+]=[N-])C(=O)N[C@@H](CCC(=O)C=[N+]=[N-])C(=O)O [Alazopeptin, L-alanyl-(6-diazo-5-oxo)-L-norleucyl-(6-diazo-5-oxo)-L-norleucine]
- inhibitory activity against animal tumors: inhibitory activity against animal tumors
